Laboratory results taken from the NIST ThermoML archive (doi:10.1021/je900134z).
± gives the expanded uncertainty stated by the source.

Tests used:
[1] = refractive index (Na D-line) (dimensionless); details: 101.33 kPa, Liquid
[2] = for mass density / viscosity: 101.33 kPa, Liquid; for viscosity: Surface Light Scattering; for surface tension liquid-gas: Drop weight

Structure (SMILES)	refractive index ([1]; 283.15 K)	refractive index ([1]; 293.15 K)	refractive index ([1]; 303.15 K)	refractive index ([1]; 313.15 K)	mass density ([2]; 273.15 K) [kg/m3]	viscosity ([2]; 273.15 K) [mPa·s]	mass density ([2]; 278.15 K) [kg/m3]	viscosity ([2]; 278.15 K) [mPa·s]	mass density ([2]; 283.15 K) [kg/m3]	viscosity ([2]; 283.15 K) [mPa·s]	mass density ([2]; 288.15 K) [kg/m3]	viscosity ([2]; 288.15 K) [mPa·s]	surface tension liquid-gas ([2]; 293.15 K) [mN/m]	mass density ([2]; 293.15 K) [kg/m3]	viscosity ([2]; 293.15 K) [mPa·s]	mass density ([2]; 298.15 K) [kg/m3]	mass density ([2]; 303.15 K) [kg/m3]	viscosity ([2]; 303.15 K) [mPa·s]	mass density ([2]; 308.15 K) [kg/m3]	mass density ([2]; 313.15 K) [kg/m3]	other results
CCn1cc[n+](C)c1.CS(=O)(=O)[O-] [1-ethyl-3-methylimidazolium methanesulfonate]	1.5018 ± 0.0015	1.4996 ± 0.0015	1.4977 ± 0.0015	1.4949 ± 0.0015	1259.14 ± 1.6	1112.6 ± 67	1255.59 ± 1.6	676.3 ± 41	1252.04 ± 1.5	435.5 ± 26	1248.49 ± 1.5	290.1 ± 18	50.72 ± 1.1	1244.96 ± 1.5	205.2 ± 12	1241.52 ± 1.5	1238.15 ± 1.5	112.9 ± 6.8	1234.77 ± 1.5	1231.4 ± 1.4	viscosity ([2]; 313.15 K): 69 ± 4.2 mPa·s; mass density ([2]; 318.15 K): 1228.03 ± 1.4 kg/m3; viscosity ([2]; 323.15 K): 44.6 ± 2.7 mPa·s; mass density ([2]; 328.15 K): 1221.33 ± 1.4 kg/m3; mass density ([2]; 333.15 K): 1218 ± 1.4 kg/m3; viscosity ([2]; 333.15 K): 31.7 ± 1.9 mPa·s; mass density ([2]; 338.15 K): 1214.69 ± 1.4 kg/m3; mass density ([2]; 343.15 K): 1211.38 ± 1.4 kg/m3; mass density ([2]; 348.15 K): 1208.09 ± 1.4 kg/m3; mass density ([2]; 353.15 K): 1204.82 ± 1.4 kg/m3; mass density ([2]; 358.15 K): 1201.56 ± 1.4 kg/m3; mass density ([2]; 363.15 K): 1198.31 ± 1.3 kg/m3
CCn1cc[n+](C)c1.CO[PH](=O)[O-] [1-ethyl-3-methylimidazolium methyl phosphonate]	1.4969 ± 0.0016	1.4935 ± 0.0016	1.4928 ± 0.0016	1.4902 ± 0.0016	1208.75 ± 2.2	563.9 ± 34	1205.29 ± 2.2	379.6 ± 23	1201.82 ± 2.2	266.6 ± 16	1198.42 ± 2.1	193.2 ± 12	45.49 ± 1	1195.12 ± 2.1	143.1 ± 8.7	1191.82 ± 2.1	1188.5 ± 2.1	83.4 ± 5.1	1185.21 ± 2.1	1181.92 ± 2.1	viscosity ([2]; 313.15 K): 53.9 ± 3.3 mPa·s; mass density ([2]; 318.15 K): 1178.65 ± 2 kg/m3; mass density ([2]; 323.15 K): 1175.39 ± 2 kg/m3; viscosity ([2]; 323.15 K): 36.4 ± 2.2 mPa·s; mass density ([2]; 328.15 K): 1172.14 ± 2 kg/m3; mass density ([2]; 333.15 K): 1168.89 ± 2 kg/m3; viscosity ([2]; 333.15 K): 27.4 ± 1.7 mPa·s; mass density ([2]; 338.15 K): 1165.66 ± 2 kg/m3; mass density ([2]; 343.15 K): 1162.45 ± 2 kg/m3; mass density ([2]; 348.15 K): 1159.25 ± 1.9 kg/m3; mass density ([2]; 353.15 K): 1156.06 ± 1.9 kg/m3; mass density ([2]; 358.15 K): 1152.9 ± 1.9 kg/m3; mass density ([2]; 363.15 K): 1149.73 ± 1.9 kg/m3
CCCCn1cc[n+](CCCC)c1.O=S(=O)([N-]S(=O)(=O)C(F)(F)F)C(F)(F)F	1.4376 ± 0.0016	1.4347 ± 0.0015	1.4324 ± 0.0015	1.4298 ± 0.0015	1362.73 ± 2	277.9 ± 17	1358.06 ± 2	203 ± 12	1353.51 ± 2	152.1 ± 9.2	1349.01 ± 1.9	115.3 ± 6.9	29.55 ± 0.62	1344.5 ± 1.9	89.5 ± 5.4	1340.01 ± 1.9	1335.51 ± 1.9	57.2 ± 3.4	1331.02 ± 1.9	1326.56 ± 1.9	viscosity ([2]; 313.15 K): 37.9 ± 2.3 mPa·s; mass density ([2]; 318.15 K): 1322.09 ± 1.9 kg/m3; viscosity ([2]; 323.15 K): 26.5 ± 1.6 mPa·s; mass density ([2]; 328.15 K): 1313.2 ± 1.8 kg/m3; mass density ([2]; 333.15 K): 1308.77 ± 1.8 kg/m3; viscosity ([2]; 333.15 K): 19.2 ± 1.2 mPa·s; mass density ([2]; 338.15 K): 1304.36 ± 1.8 kg/m3; mass density ([2]; 343.15 K): 1299.99 ± 1.8 kg/m3; mass density ([2]; 348.15 K): 1295.57 ± 1.8 kg/m3; mass density ([2]; 353.15 K): 1291.2 ± 1.8 kg/m3; mass density ([2]; 358.15 K): 1286.84 ± 1.7 kg/m3; mass density ([2]; 363.15 K): 1282.5 ± 1.7 kg/m3
CCCCCCCCOS(=O)(=O)[O-].CCn1cc[n+](C)c1 [1-ethyl-3-methylimidazolium octyl sulfate]	1.4786 ± 0.0015	1.4766 ± 0.0015	1.4737 ± 0.0015	1.4712 ± 0.0015	1111.56 ± 1.1	3894.8 ± 230	1108 ± 1.1	2429.9 ± 150	1104.34 ± 1.1	1578.5 ± 95	1100.82 ± 1.1	1045.1 ± 63	31 ± 0.65	1097.48 ± 1.1	717.8 ± 43	1094.15 ± 1.1	1090.83 ± 1.1	368.1 ± 22	1087.52 ± 1.1	1084.2 ± 1	viscosity ([2]; 313.15 K): 208.1 ± 12 mPa·s; mass density ([2]; 318.15 K): 1080.97 ± 1 kg/m3; viscosity ([2]; 323.15 K): 126.2 ± 7.6 mPa·s; mass density ([2]; 328.15 K): 1074.55 ± 1 kg/m3; mass density ([2]; 333.15 K): 1071.34 ± 1 kg/m3; viscosity ([2]; 333.15 K): 80.9 ± 4.9 mPa·s; mass density ([2]; 338.15 K): 1068.14 ± 1 kg/m3; mass density ([2]; 343.15 K): 1064.94 ± 0.99 kg/m3; mass density ([2]; 348.15 K): 1061.76 ± 0.98 kg/m3; mass density ([2]; 353.15 K): 1058.59 ± 0.97 kg/m3; mass density ([2]; 358.15 K): 1055.42 ± 0.96 kg/m3; mass density ([2]; 363.15 K): 1052.26 ± 0.96 kg/m3
